Test system: skin
Assay: Affymetrix microarray of skin, DBP-4 hr and analogs vs. untreated; gene selection by log-2 fold change, Wilcoxon, Kendall tau (Tables 8, 9)
Assay type: in vivo, mouse
[1] = Kendall tau, expression vs. output

CCCCOC(=O)c1ccccc1C(=O)OCCCC [DBP, dibutylphthalate]
No: Kendall (Gpr65 NM_008152_at, Kendall tau coefficient) | 1110032A04Rik NM_133675_at Kendall [1] | 2610528A11Rik XR_105647_at Kendall [1] | 1500015010Rik NM_024283_at Kendall [1] | 3110079015Rik NM_028473_at Kendall [1] | A2m NM_175628_at Kendall [1] | AY026312 NM_133359_at Kendall [1] | Actn2 NM_033268_at Kendall [1] | Akr1c14 NM_134072_at Kendall [1] | Aox4 NM_023631_at Kendall [1] | Asb5 NM_029569_at Kendall [1] | Ccl8 NM_021443_at Kendall [1] | Ccl24 NM_019577_at Kendall [1] | Cd209d NM_130904_at Kendall [1] | Ckmt2 NM_198415_at Kendall [1] | Cldn8 NM_018778_at Kendall [1] | Clec4n NM_020001_at Kendall [1] | Cmya5 NM_023821_at Kendall [1] | Comp NM_016685_at Kendall [1] | Corin NM_016869_at Kendall [1] | Crispld1 NM_031402_at Kendall [1] | Cxcl10 NM_021274_at Kendall [1] | Cxcr6 NM_030712_at Kendall [1] | Dbp NM_016974_at Kendall [1] | Ear5 NM_019398_at Kendall [1] | Gm10228 XM_001474297_at Kendall [1] | Gm10228 XM_003086004_at Kendall [1] | Gm10229 XM_003086003_at Kendall [1] | Gsdmc NM_031378_at Kendall [1] | H19 NR_001592_at Kendall [1] | Krt33a NM_027983_at Kendall [1] | Krt34 NM_027563_at Kendall [1] | Krtap1-5 NM_027157_at Kendall [1] | Krtap3-1 NM_023511_at Kendall [1] | Krtap3-3 NM_025524_at Kendall [1] | Krtap4-2 NM_026807_at Kendall [1] | Krtap5-2 NM_027844_at Kendall [1] | Krtap9-3 NM_029351_at Kendall [1] | Krtap13-1 NM_183189_at Kendall [1] | Krtap16-1 NM_130870_at Kendall [1] | Krtap16-5 NM_130857_at Kendall [1] | Krtap16-7 NM_028621_at Kendall [1] | Krtap16-8 NM_130856_at Kendall [1] | Krtap16-9 NM_130876_at Kendall [1] | Krtap16-10 NM_183296_at Kendall [1] | Krtap28-13 XM_896507_at Kendall [1] | Krtap28-13 XM_919110_at Kendall [1] | LOC100503254 XM_003085741_at Kendall [1] | Lmod2 NM_053098_at Kendall [1] | Lyz2 NM_017372_at Kendall [1] | Mia1 NM_019394_at Kendall [1] | Ms4a6d NM_026835_at Kendall [1] | Mylpf NM_016754_at Kendall [1] | Myoz2 NM_021503_at Kendall [1] | Nrap NM_198059_at Kendall [1] | Nusap1 NM_133851_at Kendall [1] | Olr1 NM_138648_at Kendall [1]
Yes: 2510002D24Rik NM_001033164_at Kendall [1] | 2510009E07Rik NM_001001881_at Kendall [1] | Aldh7a1 NM_001127338_at Kendall [1] | Atp2a2 NM_001110140_at Kendall [1] | Atp13a3 NM_001128094_at Kendall [1] | Atp13a3 NM_001128096_at Kendall [1] | Bcr NM_001081412_at Kendall [1] | Camk2g NM_001039138_at Kendall [1] | Camk2g NM_001039139_at Kendall [1] | Cyth1 NM_001112699_at Kendall [1] | Cyth1 NM_001112700_at Kendall [1] | Deptor NM_001037937_at Kendall [1] | Dlgap4 NM_001042487_at Kendall [1] | Dlgap4 NM_001042488_at Kendall [1] | Fam134b NM_001034851_at Kendall [1] | Gcdh NM_001044744_at Kendall [1] | Il1rl1 NM_001025602_at Kendall [1] | Inpp5a NM_001127363_at Kendall [1] | Inpp5d NM_001110192_at Kendall [1] | Inpp5d NM_001110193_at Kendall [1] | Klhdc5 NM_001081237_at Kendall [1] | Mfhas1 NM_001081279_at Kendall [1] | Mfsd4 NM_001114662_at Kendall [1] | Mrpl44 NM_001081210_at Kendall [1] | Ncbp1 NM_001033201_at Kendall [1] | Nolc1 NM_001039351_at Kendall [1] | Nolc1 NM_001039352_at Kendall [1] | Nolc1 NM_001039353_at Kendall [1] | Ogfrl1 NM_001081079_at Kendall [1] | Oxr1 NM_001130163_at Kendall [1] | Oxr1 NM_001130164_at Kendall [1] | Oxr1 NM_001130165_at Kendall [1]

From patent US20150307938A1, “METHOD TO IDENTIFY A NOVEL CLASS OF IMMUNOLOGIC ADJUVANTS” (Lancell, L.L.C., priority 2011, published 2015)
